Data published in patent US9149038B2, “4-amino-6-(heterocyclic)picolinates and 6-amino-2-(heterocyclic)pyrimidine-4-carboxylates and their use as herbicides” (Dow AgroSciences LLC, priority 2013, dated 2015).
Like-named read-outs stand apart in the source and are kept apart here.

Tests used:
[1] = tested on: Key Grass and Sedge Weeds as well as Grass Crops; test: Post-Emergent Test II: postemergent herbicidal activity, visual rating after 14 d (Table 8); type: in vivo; conditions: post-emergence, 336 h; for pest or weed control at 35 g/ha: 35 g ai/ha; for pest or weed control at 70 g/ha: 70 g ai/ha; for pest or weed control at 140 g/ha: 140 g ai/ha
Outline: (§1)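 Scoring is visual, 0-100, at 14 d after application, comparing treated with untreated plants. Application: overhead track spray at 187 L/ha onto seedlings at 1-2 true leaves, in surfactant/crop-oil carrier.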

[2] = tested on: Key Broadleaf Weed and Crop Species; test: Post-Emergent Test II: postemergent herbicidal activity, visual rating after 14 d (Table 7); type: in vivo; conditions: post-emergence, 336 h; for pest or weed control at 35 g/ha: 35 g ai/ha; for pest or weed control at 70 g/ha: 70 g ai/ha; for pest or weed control at 140 g/ha: 140 g ai/ha
Outline: as §1

[3] = barnyardgrass (Echinochloa crus-galli), read-out: Visual Growth Reduction (%) 14 Days After Application, ECHCG
[4] = giant foxtail (Setaria faberi), read-out: Visual Growth Reduction (%) 14 Days After Application, SETFA
[5] = maize, corn (Zea mays), read-out: Visual Growth Reduction (%) 14 Days After Application, ZEAMX
[6] = rice (Oryza sativa), read-out: Visual Growth Reduction (%) 14 Days After Application, ORYSA
[7] = wheat, spring (Triticum aestivum), read-out: Visual Growth Reduction (%) 14 Days After Application, TRZAS
[8] = yellow nutsedge (Cyperus esculentus), read-out: Visual Growth Reduction (%) 14 Days After Application, CYPES
[9] = ABUTH: velvetleaf (Abutilon theophrasti), read-out: Visual Growth Reduction (%) 14 Days After Application ABUTH
[10] = AMARE: redroot pigweed (Amaranthus retroflexus), read-out: Visual Growth Reduction (%) 14 Days After Application AMARE
[11] = BRSNN: oilseed rape, canola (Brassica napus), read-out: Visual Growth Reduction (%) 14 Days After Application BRSNN
[12] = CHEAL: lambsquarters (Chenopodium album), read-out: Visual Growth Reduction (%) 14 Days After Application CHEAL
[13] = EPHHL: wild poinsettia (Euphorbia heterophylla), read-out: Visual Growth Reduction (%) 14 Days After Application EPHHL
[14] = HELAN: sunflower (Helianthus annuus), read-out: Visual Growth Reduction (%) 14 Days After Application HELAN

Row | SMILES | pest or weed control at 35 g/ha [1, 3] [%] | pest or weed control at 70 g/ha [1, 3] [%] | pest or weed control at 140 g/ha [1, 3] [%] | pest or weed control at 35 g/ha [1, 4] [%] | pest or weed control at 70 g/ha [1, 4] [%] | pest or weed control at 140 g/ha [1, 4] [%] | pest or weed control at 35 g/ha [1, 5] [%] | pest or weed control at 70 g/ha [1, 5] [%] | pest or weed control at 140 g/ha [1, 5] [%] | pest or weed control at 35 g/ha [1, 6] [%] | pest or weed control at 70 g/ha [1, 6] [%] | pest or weed control at 140 g/ha [1, 6] [%] | pest or weed control at 35 g/ha [1, 7] [%] | pest or weed control at 70 g/ha [1, 7] [%] | pest or weed control at 140 g/ha [1, 7] [%] | pest or weed control at 35 g/ha [1, 8] [%] | pest or weed control at 70 g/ha [1, 8] [%] | pest or weed control at 140 g/ha [1, 8] [%] | pest or weed control at 35 g/ha [2, 9] [%] | pest or weed control at 70 g/ha [2, 9] [%] | other results
1 | COC(=O)c1nc(-c2ccc(F)c3c2OCO3)nc(N)c1OC [Compound 97] | 0 to 29 | 0 to 29 | 0 to 29 | 0 to 29 | 0 to 29 | 0 to 29 | 0 to 29 | 0 to 29 | 0 to 29 | 0 to 29 | 0 to 29 | 0 to 29 | 0 to 29 | 0 to 29 | 0 to 29 | 0 to 29 | 0 to 29 | 0 to 29 | 0 to 29 | 0 to 29 | pest or weed control at 140 g/ha [2, 9]: 0 to 29%; pest or weed control at 35 g/ha [2, 10]: 0 to 29%; pest or weed control at 70 g/ha [2, 10]: 0 to 29%; pest or weed control at 140 g/ha [2, 10]: 0 to 29%; pest or weed control at 35 g/ha [2, 11]: 0 to 29%; pest or weed control at 70 g/ha [2, 11]: 0 to 29%; pest or weed control at 140 g/ha [2, 11]: 0 to 29%; pest or weed control at 35 g/ha [2, 12]: 60 to 74%; pest or weed control at 70 g/ha [2, 12]: 85 to 94%; pest or weed control at 140 g/ha [2, 12]: 60 to 74%; pest or weed control at 35 g/ha [2, 13]: 0 to 29%; pest or weed control at 70 g/ha [2, 13]: 0 to 29%; pest or weed control at 140 g/ha [2, 13]: 0 to 29%; pest or weed control at 35 g/ha [2, 14]: 60 to 74%; pest or weed control at 70 g/ha [2, 14]: 75 to 84%; pest or weed control at 140 g/ha [2, 14]: 85 to 94%
2 | COC(=O)c1nc(-c2cccc3c2OCO3)nc(N)c1OC [Compound 98] | 0 to 29 | 0 to 29 | 0 to 29 | 0 to 29 | 0 to 29 | 0 to 29 | 0 to 29 | 0 to 29 | 0 to 29 | 0 to 29 | 0 to 29 | 0 to 29 | 0 to 29 | 0 to 29 | 0 to 29 | 0 to 29 | 0 to 29 | 0 to 29 | 0 to 29 | 0 to 29 | pest or weed control at 140 g/ha [2, 9]: 0 to 29%; pest or weed control at 35 g/ha [2, 10]: 0 to 29%; pest or weed control at 70 g/ha [2, 10]: 0 to 29%; pest or weed control at 140 g/ha [2, 10]: 30 to 44%; pest or weed control at 35 g/ha [2, 11]: 0 to 29%; pest or weed control at 70 g/ha [2, 11]: 0 to 29%; pest or weed control at 140 g/ha [2, 11]: 0 to 29%; pest or weed control at 35 g/ha [2, 12]: 45 to 59%; pest or weed control at 70 g/ha [2, 12]: 60 to 74%; pest or weed control at 140 g/ha [2, 12]: 60 to 74%; pest or weed control at 35 g/ha [2, 13]: 0 to 29%; pest or weed control at 70 g/ha [2, 13]: 0 to 29%; pest or weed control at 140 g/ha [2, 13]: 0 to 29%; pest or weed control at 35 g/ha [2, 14]: 0 to 29%; pest or weed control at 70 g/ha [2, 14]: 30 to 44%; pest or weed control at 140 g/ha [2, 14]: 60 to 74%
3 | COC(=O)c1nc(-c2cccc3c2OC(F)(F)O3)nc(N)c1OC [Compound 99] | 0 to 29 | 0 to 29 | 0 to 29 | 0 to 29 | 0 to 29 | 0 to 29 | 0 to 29 | 0 to 29 | 0 to 29 | 0 to 29 | 0 to 29 | 0 to 29 | 0 to 29 | 0 to 29 | 0 to 29 | 0 to 29 | 0 to 29 | 0 to 29 | 0 to 29 | 0 to 29 | pest or weed control at 140 g/ha [2, 9]: 0 to 29%; pest or weed control at 35 g/ha [2, 10]: 0 to 29%; pest or weed control at 70 g/ha [2, 10]: 0 to 29%; pest or weed control at 140 g/ha [2, 10]: 0 to 29%; pest or weed control at 35 g/ha [2, 11]: 0 to 29%; pest or weed control at 70 g/ha [2, 11]: 0 to 29%; pest or weed control at 140 g/ha [2, 11]: 0 to 29%; pest or weed control at 35 g/ha [2, 12]: 60 to 74%; pest or weed control at 70 g/ha [2, 12]: 75 to 84%; pest or weed control at 140 g/ha [2, 12]: 85 to 94%; pest or weed control at 35 g/ha [2, 13]: 0 to 29%; pest or weed control at 70 g/ha [2, 13]: 0 to 29%; pest or weed control at 140 g/ha [2, 13]: 0 to 29%; pest or weed control at 35 g/ha [2, 14]: 75 to 84%; pest or weed control at 70 g/ha [2, 14]: 85 to 94%; pest or weed control at 140 g/ha [2, 14]: 85 to 94%
